The values that follow come from patent publication US20240269096A1, “Rapid Onset Therapeutic Ketosis Enabled by D-BetaHydroxyButyric Acid Systems, Compounds and Methods for Sepsis Protection and Enhanced Medical Recovery” (American Ketone Therapeutics LLC, priority 2022, published 2024).

Data set [1] is described as follows: Blood ketone levels by Abbott blood test strip after oral free D-BHB. Type of data set: in vivo, human. An excerpt: FIG. 9 is a graphical illustration of D-BHB exogenous ketone blood levels. The above Abbot blood ketone meter evidenced by Abbott blood test strip depicts the rapid rise in blood ketone levels from 0.1 mmol/L (absence of ketosis) to 2.7 mmol/L (ketosis) after oral bolus administration of 15 grams of bioidentical free D-BetaHydroxyButyric Acid. The ketone levels depicted are attained in the absence of a salt as well as without ester bonds. It is the free acid D-BHB exogenously administered which is bio-identical to the endogenous D-BHB free acid generated by the human body. The bioidentical ketone body D-BHB is first and foremost an energy source, which is directly and preferentially metabolized by the brain. D-BHB is also active as a signaling mechanism and neuro-inflammation reduction agent, resulting in broad and beneficial brain bioenergy related benefits.
FIG. 10 is a graphical illustration of D-BHB exogenous ketone blood levels. FIG. 10 details rapid ketosis within 45 minutes confirmed by Abbott blood test strip after 10 g D-BHB with palatability agent administered by oral drink. Blood ketone levels document rise from 0.2 mmol/L to 1.8 mmol/L and 0.6 mmol/L to 1.9 mmol/L in a variety of test subjects. FIG. 10 reinforces the fact that supplementation by utilizing free D only BetaHydroxyButyric Acid without ketone salt or ketone ester is a reliable, reproduceable method and system for rapid ketone level increase for stroke recovery and maintenance. While amounts of free D only BetaHydroxyButyric Acid taken for stroke effects may vary, it is an anticipated preferred embodiment that levels between 5 and 30 grams of D only BetaHydroxyButyric Acid are taken as needed for optimum recovery. Alternate embodiments may include lower or higher amounts, however, experimental evidence has confirmed optimal administration in this range for a wide variety of other applications.

Data set [2] in a line: Continuous glucose monitoring (Abbot Libre CGM) with carbohydrate challenge. To be noted: 10 g administered 45 minutes before 50 g carbohydrate ingestion; versus unsupplemented ingestion. It counts as in vivo. An excerpt: FIG. 11 is a graphical illustration of continuous monitoring of body glucose levels. FIG. 11 depicts continuous glucose monitoring levels with carbohydrate challenge documented by Abbot Libre Continuous Glucose Monitoring (CGM) device. In this illustrative embodiment, glucose levels from a 50 g carbohydrate ingestion are depicted unaided by free D-BetaHydroxyButyric Acid on the left and repeated the following day with two 50 g carbohydrate ingestions accompanied by 10 g free D-BetaHydroxyButyric Acid administered 45 minutes before the carbohydrate insult. […] As free D-BetaHydroxyButyric Acid can lower glucose while rapidly increasing ketone levels, it is believed that obtaining high ketones while lowering glucose will yield additional stroke recovery benefits for high glucose sensitive individuals suffering from sepsis and may be considered in lieu of insulin administration.

Data set [3] is described as follows: Continuous Ketone Meter (CKM) monitoring of body ketone levels and deep sleep. To be noted: 5 grams consumed 45 minutes prior to bedtime. It counts as in vivo. An excerpt: FIG. 12 is a graphical illustration of continuous monitoring of body ketone levels resulting in improved deep sleep time due to enhanced D-BHB levels according to the claimed invention. It is noteworthy that consumption of even small amounts of free D-BetaHydroxyButyric Acid can give rise to therapeutic ketosis levels as measured by Continuous Ketone Meter (CKM). […] While free D-BetaHydroxyButyric Acid is not a sedative, even small amounts can greatly improve deep sleep quantity and quality. It is an intended and foreseeable embodiment application to increase deep sleep with free D-BetaHydroxyButyric Acid with the aim of guarding against sepsis, improving hospital recovery and enhanced resiliency.

For data set [4] the following is noted: compared with ketone salts; FIG. 5 literature data; cited from earlier work.
In data set [5] the test system is LPS-induced myocardial injury and cardiac dysfunction. To be noted: mouse model; study utilized the synthetic ketone ester; cited from earlier work.
Data set [6] deals with T1, NLRP3 inflammasome (Homo sapiens, UniProt Q96P20).
T1 construct: host or cells: macrophages
T1 sequence (Q96P20 whole entry): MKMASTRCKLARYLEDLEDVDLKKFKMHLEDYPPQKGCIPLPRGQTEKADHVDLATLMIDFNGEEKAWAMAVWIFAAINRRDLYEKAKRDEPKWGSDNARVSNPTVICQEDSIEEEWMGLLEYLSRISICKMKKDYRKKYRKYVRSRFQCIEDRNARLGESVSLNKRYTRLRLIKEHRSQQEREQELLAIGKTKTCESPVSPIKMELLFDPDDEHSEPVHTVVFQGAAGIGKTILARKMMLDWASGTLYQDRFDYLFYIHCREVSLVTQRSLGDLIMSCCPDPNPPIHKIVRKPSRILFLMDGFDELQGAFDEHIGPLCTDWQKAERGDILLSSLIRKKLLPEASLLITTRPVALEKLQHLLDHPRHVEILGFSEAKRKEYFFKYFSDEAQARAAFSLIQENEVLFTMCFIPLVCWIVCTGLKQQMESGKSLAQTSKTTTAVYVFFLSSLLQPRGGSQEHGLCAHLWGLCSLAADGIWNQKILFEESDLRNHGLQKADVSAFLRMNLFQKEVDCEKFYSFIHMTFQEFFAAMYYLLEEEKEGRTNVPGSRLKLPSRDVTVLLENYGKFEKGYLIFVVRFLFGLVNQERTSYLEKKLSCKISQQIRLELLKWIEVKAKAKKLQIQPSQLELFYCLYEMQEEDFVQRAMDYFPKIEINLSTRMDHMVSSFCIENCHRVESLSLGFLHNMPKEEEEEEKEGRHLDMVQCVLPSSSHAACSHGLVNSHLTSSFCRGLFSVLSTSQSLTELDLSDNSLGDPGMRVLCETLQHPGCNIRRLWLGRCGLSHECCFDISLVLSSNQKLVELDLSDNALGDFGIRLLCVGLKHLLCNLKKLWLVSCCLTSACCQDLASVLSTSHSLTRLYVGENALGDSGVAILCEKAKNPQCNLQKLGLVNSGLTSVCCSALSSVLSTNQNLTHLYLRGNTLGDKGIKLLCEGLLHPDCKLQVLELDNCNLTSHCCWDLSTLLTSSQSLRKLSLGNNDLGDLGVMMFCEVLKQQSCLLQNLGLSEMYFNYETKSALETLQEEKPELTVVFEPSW
Conditions: independently of GPR109A binding or mitochondrial oxidation; cited from earlier work.

SMILES strings stand for the structures. Values joined by “and” are separate entries in the source; they are usually repeats but may differ in a detail not shown here. Equal values may be shown once. A value given as a limit tells only on which side of the number the result lay.

As to `C[C@@H](O)CC(=O)O` [D-BHB, D-β-HydroxyButyric Acid], in data set [1] (10 g with palatability agent by oral drink), the time to ketosis was not above 45 min. In addition, in data set [1] (10 g with palatability agent by oral drink, within 45 minutes, rise from 0.2 and 0.6 mmol/L respectively, different test subjects), the “blood ketone levels after administration” value was 1.8 mmol/L and 1.9 mmol/L. Moreover, in data set [1] (oral bolus of 15 grams, rise from 0.1 mmol/L (absence of ketosis)), the “blood ketone levels after administration” value was determined as 2.7 mmol/L. Moreover, in data set [2], the “glucose spike after carbohydrate ingestion” value is on record as “the rapid glucose spike depicted in the unsupplemented ingestion is not found”. In data set [3], the “increase in ketone level (CKM)” value amounted to 1.5 mmol/L and the “quantity of deep sleep” value is listed as “enhance the quantity of deep sleep obtained”.
As for `C[C@@H](O)CCOC(=O)C[C@@H](C)O` [ketone ester, (R)-3-hydroxybutyl (R)-3-hydroxybutyrate], the ketone level response entry in data set [4] was “higher ketone level response”.
Take `CC(O)CC(=O)O` (stereo not drawn) [β-OHB, β-Hydroxybutyrate]: the “effect on LPS-induced myocardial injury and cardiac dysfunction” value in data set [5] is “prevent LPS-induced myocardial injury and cardiac dysfunction”. Also, the “effect on NLRP3 inflammasome in macrophages” value in data set [6] is on record as “inhibits the NLRP3 inflammasome”.
